# Assay results published in the PolyMetriX glass transition set.
row,SMILES,glass transition temperature
1,*/C(C#N)=C/c1cc(/C=C(\C#N)c2ccc3c(c2)C(CCCCCCCC)(CCCCCCCC)c2cc(*)ccc2-3)cc(N(c2ccccc2)c2ccccc2)c1 (repeat unit),136.00 °C
2,*CC(*)(F)C(=O)OCC(F)(F)C(F)(F)F (repeat unit),99.00 °C
3,*Oc1ccc(C2(c3ccc(OC(=O)OC4C(C)(C)C(OC(*)=O)C4(C)C)cc3)c3ccccc3-c3ccccc32)cc1 (repeat unit),214.00 °C
4,*CC(*)C(=O)OCCOCC (repeat unit),-50.00 °C
5,*c1cccc(N2C(=O)c3ccc(Oc4ccc5cc(Oc6ccc7c(c6)C(=O)N(*)C7=O)ccc5c4)cc3C2=O)c1 (repeat unit),230.00 °C
6,*c1cccc(C(=O)Nc2ccc(Oc3ccc(Oc4ccc(NC(=O)c5cccc(N6C(=O)c7ccc(-c8ccc9c(c8)C(=O)N(*)C9=O)cc7C6=O)c5)cc4)cc3)cc2)c1 (repeat unit),244.00 °C
7,*c1ccc(Oc2ccc(-c3ccc4nc(Oc5cc(-c6ccccc6)c6cc(*)ccc6n5)cc(-c5ccccc5)c4c3)cc2)cc1 (repeat unit),268.50 °C
8,*c1ccc2c(c1)C(=O)N(c1ccc(N(c3ccc(/C=C/c4ccc([N+](=O)[O-])cc4)cc3)c3ccc(N4C(=O)c5ccc(C(*)(C(F)(F)F)C(F)(F)F)cc5C4=O)cc3)cc1)C2=O (repeat unit),290.00 °C
9,*C(=O)Nc1ccc(C(c2ccc(NC(=O)c3ccc(N4C(=O)c5ccc(*)cc5C4=O)cc3C)cc2)(C(F)(F)F)C(F)(F)F)cc1 (repeat unit),355.00 °C
10,*c1ccc(N(c2ccc(C#N)cc2)c2ccc(N3C(=O)c4ccc(Oc5ccc(C6(c7ccc(Oc8ccc9c(c8)C(=O)N(*)C9=O)cc7)CCCCC6)cc5)cc4C3=O)cc2)cc1 (repeat unit),243.00 °C
11,*CCCCCCCCCCCCN1C(=O)c2ccc(C(c3ccc4c(c3)C(=O)N(*)C4=O)(C(F)(F)F)C(F)(F)F)cc2C1=O (repeat unit),101.00 °C
12,*c1ccc(C(=O)OCCCCCCCCCCCCOC(=O)c2ccc(-c3nnc(*)s3)cc2)cc1 (repeat unit),68.00 °C
13,*CC(*)c1ccc(/C(Cc2ccccc2)=N/O)cc1 (repeat unit),111.00 °C
14,*c1ccc(Oc2ccc(C3(c4ccc(Oc5ccc(N6C(=O)c7ccc(Oc8c(C)cc(C(C)(C)c9cc(C)c(Oc%10ccc%11c(c%10)C(=O)N(*)C%11=O)c(C)c9)cc8C)cc7C6=O)cc5)cc4)C4CC5CC(C4)CC3C5)cc2)cc1 (repeat unit),282.00 °C
15,*CC(*)c1cc(Br)ccc1OC(C)C (repeat unit),35.00 °C
16,*c1ccc(Cc2ccc(-n3c(=O)c4cc5c(=O)n(*)c(=O)c5cc4c3=O)cc2)cc1 (repeat unit),351.00 °C
17,*Oc1ccc(S(=O)(=O)c2ccc(Oc3ccc(C(c4ccc(*)c([Si](C)(C)C)c4)(C(F)(F)F)C(F)(F)F)cc3[Si](C)(C)C)cc2[Si](C)(C)C)c([Si](C)(C)C)c1 (repeat unit),148.90 °C
18,*CC(*)(C)C(=O)OCc1ccc(Cl)cc1Cl (repeat unit),19.40 °C
19,*CC(COCCCCCC)O* (repeat unit),-85.50 °C
20,*OC(=O)OC1CC2CC(*)CC(C1)O2 (repeat unit),207.00 °C
21,*CC(C)(C)COC(=O)Nc1ccc(Cc2ccc(NC(=O)O*)cc2)cc1 (repeat unit),94.00 °C
22,*C(=O)Nc1ccc(Oc2ccc(C(C)(C)c3ccc(Oc4ccc(NC(=O)c5ccc6c(c5)C(=O)N(c5ccc(Oc7cccc(N8C(=O)c9ccc(*)cc9C8=O)c7)cc5)C6=O)cc4)cc3)cc2)cc1 (repeat unit),207.00 °C
23,*CC/C=C(/*)c1ccccc1 (repeat unit),39.50 °C

row,SMILES,glass transition temperature
1,*c1cccc(Oc2ccc(C#N)c(Oc3cccc(N4C(=O)c5ccc(Oc6ccc7c(c6)C(=O)N(*)C7=O)cc5C4=O)c3)c2)c1 (repeat unit),196.00 °C
2,*Oc1ccc(C(C)(C)c2ccc(Oc3ccc(C(=O)c4ccc(C(=O)c5ccc(*)c(C(F)(F)F)c5)cc4)cc3C(F)(F)F)cc2)cc1 (repeat unit),171.00 °C
3,*/C=[CH]/[Ge]([*])([c]1ccccc1)[c]1ccccc1 (repeat unit),-36.00 °C
4,*c1ccc(CCc2ccccc2N2C(=O)C(=O)N(c3ccc(Oc4ccc(N5C(=O)C(=O)N(*)C5=O)cc4)cc3)C2=O)cc1 (repeat unit),208.00 °C
5,*CCCCCCN1C(=O)C(=O)N(c2ccc(CCc3ccccc3N3C(=O)C(=O)N(*)C3=O)cc2)C1=O (repeat unit),137.00 °C
6,*C1C(*)C2CC1C(C(=O)OCC1CC3CCC1C3)C2C(=O)OCC1CC2CCC1C2 (repeat unit),320.00 °C
7,*O[Si](C)(C)O[Si](C)(C)O[Si](*)(C)c1c(F)c(F)c(F)c(F)c1F (repeat unit),-83.00 °C
8,*CCOCCOC(=O)CCCC(=O)O* (repeat unit),-55.00 °C
9,*Oc1ccc(NC(=O)c2cc(-c3ccc(C(=O)O)c(C(=O)Nc4ccc(*)cc4)c3)ccc2C(=O)O)cc1 (repeat unit),184.40 °C
10,*/C=C/C1CC(*)C(C(=O)Oc2ccccc2)C1C(=O)Oc1ccccc1 (repeat unit),96.50 °C
11,*CCCCCCCCCCOC(=O)NNC(=O)CCCCCCCCC(=O)NNC(=O)O* (repeat unit),34.00 °C
12,*c1cccc(N2C(=O)C(=O)N(CCCCCCN3C(=O)C(=O)N(*)C3=O)C2=O)n1 (repeat unit),169.50 °C
13,*Cc1ccc(CSS*)cc1 (repeat unit),23.00 °C
14,*CCN(*)C(=O)c1ccccc1 (repeat unit),111.00 °C
15,*c1cccc(P(=O)(c2cccc(N3C(=O)c4ccc(Oc5ccc6c(c5)C(=O)N(*)C6=O)cc4C3=O)c2)c2cc(C(F)(F)F)cc(C(F)(F)F)c2)c1 (repeat unit),228.00 °C
16,*CCCCCCOC(=O)OCCCCCCCCCCOC(=O)OCCCCCCOc1ccc(Oc2ccc(O*)cc2)cc1 (repeat unit),-22.00 °C
17,*Cc1cccc(C[n+]2ccc(-c3cc[n+](*)cc3)cc2)c1 (repeat unit),128.00 °C
18,*CCOCCOc1cccc(NC(=O)c2cccc(C(=O)Nc3cccc(O*)c3)c2)c1 (repeat unit),128.50 °C
19,*c1cccc(-c2nc3cc(Oc4ccc5nc(-c6ccccc6)c(*)nc5c4)ccc3nc2-c2ccccc2)c1 (repeat unit),270.00 °C
20,*Oc1ccc(C(C)(C)c2ccc(OC(=O)c3cccc(C(F)(F)C(F)(F)C(F)(F)c4cccc(C(*)=O)c4)c3)cc2)cc1 (repeat unit),122.00 °C
21,*c1cccc(Oc2cccc(Oc3cccc(N4C(=O)c5c(c(-c6ccccc6)c(-c6ccc(Oc7ccc(Oc8ccc(-c9c(-c%10ccccc%10)c%10c(c(-c%11ccccc%11)c9-c9ccccc9)C(=O)N(*)C%10=O)cc8)cc7)cc6)c(-c6ccccc6)c5-c5ccccc5)C4=O)c3)c2)c1 (repeat unit),238.00 °C
22,*c1[nH]c2ccccc2c1* (repeat unit),137.00 °C
